# Laboratory results reported in PubChem BioAssay (NCI).
#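 These data come from cells grown in 96-well plates and exposed to compound for 48 hours at five concentrations. GI50 marks 50% less growth. TGI is the concentration that stops growth completely.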
# Columns and labels:
# Experiment in all cases: NCI tumour cell line growth inhibition, 48 h
# OVCAR-5 ovarian = test system: OVCAR-5 ovarian
# SK-MEL-2 melanoma = test system: SK-MEL-2 melanoma
# T-47D breast = test system: T-47D breast
# SW-620 colon = test system: SW-620 colon
# U251 CNS = test system: U251 CNS
# HS 578T breast = test system: HS 578T breast
# MALME-3M melanoma = test system: MALME-3M melanoma
# BT-549 breast = test system: BT-549 breast
# SK-MEL-5 melanoma = test system: SK-MEL-5 melanoma
# OVCAR-8 ovarian = test system: OVCAR-8 ovarian
SMILES,TGI (OVCAR-5 ovarian),TGI (SK-MEL-2 melanoma),TGI (T-47D breast),TGI (SW-620 colon),TGI (U251 CNS),TGI (HS 578T breast),TGI (MALME-3M melanoma),TGI (BT-549 breast),TGI (SK-MEL-5 melanoma),TGI (OVCAR-8 ovarian),GI50 (OVCAR-5 ovarian),GI50 (SK-MEL-2 melanoma),GI50 (T-47D breast),GI50 (SW-620 colon),GI50 (U251 CNS),GI50 (HS 578T breast),GI50 (MALME-3M melanoma),GI50 (BT-549 breast),GI50 (SK-MEL-5 melanoma),GI50 (OVCAR-8 ovarian)
CCOC(=O)c1c(N2CCCC2)[nH]c(=O)c(C(c2ccco2)c2c(O)c(C(=O)OCC)c(N3CCCC3)[nH]c2=O)c1O,> 100 µM,> 100 µM,> 100 µM,> 100 µM,> 100 µM,> 100 µM,> 100 µM,> 100 µM,> 100 µM,> 100 µM,–,–,–,–,–,–,–,–,–,–
CC(=O)N(O)[C@@H]1CC[C@H](n2cnc3c(N)ncnc32)C1,> 100 µM,> 100 µM,> 100 µM,> 100 µM,> 100 µM,> 100 µM,> 100 µM,> 100 µM,> 100 µM,> 100 µM,–,–,–,–,–,–,–,–,–,–
Brc1ccc2c([C@H]3CN[C@@H](c4c[nH]c5cc(Br)ccc45)CN3)c[nH]c2c1,10.5 µM,9.76 µM,12.8 µM,3.28 µM,4.19 µM,25.2 µM,7.73 µM,24.7 µM,15.6 µM,3.38 µM,–,–,–,–,–,–,–,–,–,–
CCOC(=O)C(Cl)(NC(=O)c1c(F)c(F)c(F)c(F)c1F)C(F)(F)F (stereo not given),> 100 µM,> 100 µM,> 100 µM,> 100 µM,> 100 µM,> 100 µM,> 100 µM,> 100 µM,> 100 µM,> 100 µM,–,–,–,–,–,–,–,–,–,–
CC1OC(O[C@H]2C3C=CO[C@@H](OC4OC(CO)C(O)C(O)C4O)C3[C@@]3(COC(=O)/C=C/c4ccc(O)cc4)O[C@@H]23)C(O)C(O)C1O (stereo not given in full),> 100 µM,> 100 µM,> 100 µM,> 100 µM,> 100 µM,> 100 µM,> 100 µM,> 100 µM,> 100 µM,> 100 µM,–,–,–,–,–,–,–,–,–,–
CC(C)[Si](OC1=CCC[C@H]2NC(=O)[C@@H](Cc3ccccc3)[C@@]12C)(C(C)C)C(C)C,21.3 µM,29.7 µM,12.2 µM,9.16 µM,11.6 µM,18.5 µM,34.3 µM,24.1 µM,9.58 µM,24.8 µM,–,–,–,–,–,–,–,–,–,–
C#CC1(O)C(COP(=O)(O)OCC2OC(n3ccc(NCCCCCCCCCCCCCCCCCC)nc3=O)C(O)C2O)OC(n2ccc(N)nc2=O)C1O (stereo not given),60.5 µM,5.3 µM,> 38.4 µM,> 50 µM,53.5 µM,45.2 µM,11 µM,29.8 µM,26 µM,35.3 µM,–,–,–,–,–,–,–,–,–,–
Cc1ccc(-n2[nH]nc(C#N)c2=O)cc1,> 100 µM,> 100 µM,> 100 µM,> 100 µM,> 100 µM,> 100 µM,> 100 µM,> 100 µM,> 100 µM,> 100 µM,–,–,–,–,–,–,–,–,–,–
Cc1cc(C)nc(SC(C)C(=O)N/N=C/c2ccc(OCc3ccccc3)cc2)n1 (stereo not given),> 100 µM,46.1 µM,63.8 µM,> 100 µM,> 100 µM,> 100 µM,> 100 µM,> 100 µM,20.5 µM,> 100 µM,–,–,–,–,–,–,–,–,–,–
CCCCN1C(=O)c2c(-c3sccc3N)sc(-c3sccc3N)c2C1=O,> 78.9 µM,> 100 µM,> 100 µM,> 100 µM,51.6 µM,83.6 µM,> 100 µM,> 88.9 µM,> 100 µM,> 72.1 µM,–,–,–,–,–,–,–,–,–,–
Nc1nc(Cl)cc(NCCC2(CO)CCC2)n1,> 100 µM,> 100 µM,> 100 µM,> 100 µM,> 100 µM,> 100 µM,> 100 µM,> 100 µM,> 100 µM,> 100 µM,–,–,–,–,–,–,–,–,–,–
O=C1/C(=C/c2ccc(Cl)cc2)N=C(c2ccccc2)N1CCc1cccs1,> 100 µM,> 100 µM,> 100 µM,> 100 µM,> 100 µM,> 100 µM,> 100 µM,> 100 µM,33.2 µM,> 100 µM,61.2 µM,14 µM,18.2 µM,30.6 µM,22.4 µM,20.3 µM,35.1 µM,22.1 µM,15.6 µM,43.8 µM
NCCCNC1(c2cc3ccccc3s2)CCCCC1,26.3 µM,4.2 µM,6.96 µM,21.2 µM,10 µM,30.2 µM,3.65 µM,27.8 µM,3.31 µM,24.4 µM,–,–,–,–,–,–,–,–,–,–
Cc1noc2nnn(-c3ccc(Cl)cc3)c(=O)c12,20 µM,10.5 µM,10.8 µM,5.41 µM,17.7 µM,> 60.3 µM,26 µM,13.5 µM,13 µM,29.8 µM,–,–,–,–,–,–,–,–,–,–
CCOC(=O)Cc1nc2sc(S(N)(=O)=O)nn2c1Br,> 100 µM,> 100 µM,70.8 µM,48 µM,37.9 µM,> 100 µM,81.7 µM,83.8 µM,42.4 µM,47.7 µM,–,–,–,–,–,–,–,–,–,–
N#CCCN(CCC#N)c1ccc(/C=C2\N=C(c3ccccc3)N(NC(N)=S)C2=O)cc1,> 100 µM,> 100 µM,> 100 µM,> 100 µM,> 100 µM,> 100 µM,> 100 µM,> 100 µM,> 100 µM,> 100 µM,–,–,–,–,–,–,–,–,–,–
